Results on 3 molecules are retold here after paper PMC3542614 (Cell Death & Disease, 2012).

For assay [1], the system named is Bcl-B. To be noted: cited from earlier work.
Assay [2] has as its target T1, Bcl-B:Bim complex (Homo sapiens, UniProt Q9HD36, C138S/C30S).
T1 sequence (Q9HD36 12-177 C30S/C138S): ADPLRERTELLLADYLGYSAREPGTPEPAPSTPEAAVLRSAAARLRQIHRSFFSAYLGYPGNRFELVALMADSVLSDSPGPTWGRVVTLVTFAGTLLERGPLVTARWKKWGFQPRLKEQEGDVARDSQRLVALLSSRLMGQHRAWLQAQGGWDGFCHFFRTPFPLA
Briefly: SPR competition assay: displacement of Bim-BH3 from the Bcl-B:6His-Bim complex. To be noted: BH3 peptides between 1.25 and 40 μM. In kind it is binding.

The target of assay [3] is Bcl-BΔC27 (C-terminally truncated Bcl-B, residues A2–A167, cysteines 20 and 128 mutated to serine) (human). Briefly: SPR.

With `CN(C)CC[C@H](CSc1ccccc1)Nc1ccc(S(=O)(=O)NC(=O)c2ccc(N3CCN(Cc4ccccc4-c4ccc(Cl)cc4)CC3)cc2)cc1[N+](=O)[O-]` [ABT-737], in assay [1], the “Binding to Bcl-B” value is listed as “does not bind Bcl-B”. In assay [2], the “Displacement of Bim from the Bcl-B:Bim complex” value is “failed to displace Bim”.
As to Bax-BH3 peptide, the IC50 (commonly the concentration needed to halve the response being measured) in assay [3] came out at 6.6 µM.
The same measure, in the same setting: with Bik-BH3 peptide the figure was 113 µM.
